Measured values reported in patent US20230348442A1, “GALECTIN-3 INHIBITING 2-HYDROXYCYCLOALKANE-1-CARBAMOYL DERIVATIVES” (Idorsia Pharmaceuticals Ltd, priority 2020, published 2023).

Molecular target: human Gal-3 (hGal-3) (Homo sapiens (Human), UniProt P17931)
Assay: competitive binding assay: binding of biotinylated hGal-3 to microplate-adsorbed asialofetuin (ASF), spectrophotometric
Details: Activity on hGal-3; mean values of several measurements
Procedure, shortened: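 Biotin-hGal-3/hGal-1 300-1000 ng/mL + cpd (DMSO dilutions) on ASF-coated plate, 3 h 4° C; wash; SA-HRP 80 ng/mL 1 h 4° C; wash; ABTS. IC50 = mean of several runs. hGal-1 preferably Cys→Ser (all six) mutant.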

Sequence of human Gal-3 (hGal-3) (P17931 whole entry): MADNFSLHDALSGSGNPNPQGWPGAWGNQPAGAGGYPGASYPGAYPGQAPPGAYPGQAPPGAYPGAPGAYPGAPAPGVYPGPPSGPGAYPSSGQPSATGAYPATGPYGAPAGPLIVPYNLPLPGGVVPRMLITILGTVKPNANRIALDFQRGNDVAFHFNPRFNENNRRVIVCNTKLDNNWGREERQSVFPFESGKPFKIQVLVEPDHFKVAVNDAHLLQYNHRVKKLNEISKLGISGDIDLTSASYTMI

CO[C@@H]1[C@@H](n2cc(-c3cc(F)c(F)c(Cl)c3)nn2)[C@@H](O)[C@@H](CO)O[C@H]1C(=O)N(c1cc(Br)cc(C#N)c1)[C@H]1CC[C@@H]1O [Example 2.7.5, (2R,3R,4S,5R,6R)-N-(3-bromo-5-cyanophenyl)-4-(4-(3-chloro-4,5-difluorophenyl)-1H-1,2,3-triazol-1-yl)-5-hydroxy-N-((1S,2S)-2-hydroxycyclobutyl)-6-(hydroxymethyl)-3-methoxytetrahydro-2H-pyran-2-carboxamide]
IC50: 80.3 nM

CO[C@@H]1[C@@H](n2cc(-c3ccc(C)c(F)c3F)nn2)[C@@H](O)[C@@H](CO)O[C@H]1C(=O)N(c1cc(Cl)cc(Cl)c1)[C@H]1CCC[C@@H]1O [Example 1.11.2, (2R,3R,4S,5R,6R)-N-(3,5-dichlorophenyl)-4-(4-(2,3-difluoro-4-methylphenyl)-1H-1,2,3-triazol-1-yl)-5-hydroxy-N-((1S,2S)-2-hydroxycyclopentyl)-6-(hydroxymethyl)-3-methoxytetrahydro-2H-pyran-2-carboxamide]
IC50: 15.1 nM

COc1cc(-c2cn([C@H]3[C@@H](O)[C@@H](CO)O[C@@H](C(=O)N(c4cc(Br)cc(Br)c4)[C@@H]4CC[C@H]4O)[C@@H]3OC)nn2)cc(F)c1F [Example 2.3.11R, (2R,3R,4S,5R,6R)-N-(3,5-dibromophenyl)-4-(4-(3,4-difluoro-5-methoxyphenyl)-1H-1,2,3-triazol-1-yl)-5-hydroxy-N-((1R,2R)-2-hydroxycyclobutyl)-6-(hydroxymethyl)-3-methoxytetrahydro-2H-pyran-2-carboxamide]
IC50: 258 nM

CO[C@@H]1[C@@H](n2cc(-c3ccc(C#N)c(F)c3)nn2)[C@@H](O)[C@@H](CO)O[C@H]1C(=O)N(c1cc(Br)cc(C#N)c1)[C@H]1CCC[C@@H]1O [Example 1.16.5, (2R,3R,4S,5R,6R)-N-(3-bromo-5-cyanophenyl)-4-(4-(4-cyano-3-fluorophenyl)-1H-1,2,3-triazol-1-yl)-5-hydroxy-N-((1S,2S)-2-hydroxycyclopentyl)-6-(hydroxymethyl)-3-methoxytetrahydro-2H-pyran-2-carboxamide]
IC50: 62 nM

CO[C@@H]1[C@@H](n2cc(-c3cc(F)c(Br)c(F)c3)nn2)[C@@H](O)[C@@H](CO)O[C@H]1C(=O)N(c1cc(F)cc(C#N)c1)[C@@H]1CC[C@H]1O [Example 2.6.7R, (2R,3R,4S,5R,6R)-4-(4-(4-bromo-3,5-difluorophenyl)-1H-1,2,3-triazol-1-yl)-N-(3-cyano-5-fluorophenyl)-5-hydroxy-N-((1R,2R)-2-hydroxycyclobutyl)-6-(hydroxymethyl)-3-methoxytetrahydro-2H-pyran-2-carboxamide]
IC50: 359 nM

CO[C@@H]1[C@@H](n2cc(-c3cc(F)c(F)c(F)c3)nn2)[C@@H](O)[C@@H](CO)O[C@H]1C(=O)N(c1cccc(Br)c1)[C@@H]1CCC[C@H]1O [Example 1.1.10R, (2R,3R,4S,5R,6R)-N-(3-bromophenyl)-5-hydroxy-N-((1R,2R)-2-hydroxycyclopentyl)-6-(hydroxymethyl)-3-methoxy-4-(4-(3,4,5-trifluorophenyl)-1H-1,2,3-triazol-1-yl)tetrahydro-2H-pyran-2-carboxamide]
IC50: 376 nM

CO[C@@H]1[C@@H](n2cc(-c3ccc(C)c(F)c3)nn2)[C@@H](O)[C@@H](CO)O[C@H]1C(=O)N(c1cc(Br)cc(C#N)c1)[C@H]1CCC[C@@H]1O [Example 1.13.5, (2R,3R,4S,5R,6R)—N-(3-bromo-5-cyanophenyl)-4-(4-(3-fluoro-4-methylphenyl)-1H-1,2,3-triazol-1-yl)-5-hydroxy-N-((1S,2S)-2-hydroxycyclopentyl)-6-(hydroxymethyl)-3-methoxytetrahydro-2H-pyran-2-carboxamide]
IC50: 17.1 nM

CO[C@@H]1[C@@H](n2cc(-c3cc(F)c(F)c(F)c3)nn2)[C@@H](O)[C@@H](CO)O[C@H]1C(=O)N(c1cccc(Cl)c1)[C@H]1CCC[C@@H]1O [Example 1.1.1, (2R,3R,4S,5R,6R)—N-(3-chlorophenyl)-5-hydroxy-N-((1S,2S)-2-hydroxycyclopentyl)-6-(hydroxymethyl)-3-methoxy-4-(4-(3,4,5-trifluorophenyl)-1H-1,2,3-triazol-1-yl)tetrahydro-2H-pyran-2-carboxamide]
IC50: 36.5 nM

CO[C@@H]1[C@@H](n2cc(-c3cc(F)c(Br)c(F)c3)nn2)[C@@H](O)[C@@H](CO)O[C@H]1C(=O)N(c1cc(Br)cc(C#N)c1)[C@@H]1CC[C@H]1O [Example 2.6.5R, (2R,3R,4S,5R,6R)-4-(4-(4-bromo-3,5-difluorophenyl)-1H-1,2,3-triazol-1-yl)-N-(3-bromo-5-cyanophenyl)-5-hydroxy-N-((1R,2R)-2-hydroxycyclobutyl)-6-(hydroxymethyl)-3-methoxytetrahydro-2H-pyran-2-carboxamide]
IC50: 303 nM

CC(=O)O[C@@H]1[C@@H](n2cc(-c3cc(F)c(F)c(F)c3)nn2)[C@@H](O)[C@@H](CO)O[C@H]1C(=O)N(c1cc(Cl)cc(C#N)c1)[C@H]1CCC[C@@H]1O [Example 1A.1.4, (2R,3R,4S,5R,6R)-2-((3-chloro-5-cyanophenyl)((1S,2S)-2-hydroxycyclopentyl)carbamoyl)-5-hydroxy-6-(hydroxymethyl)-4-(4-(3,4,5-trifluorophenyl)-1H-1,2,3-triazol-1-yl)tetrahydro-2H-pyran-3-yl acetate]
IC50: 25.3 nM

CO[C@@H]1[C@@H](n2cc(-c3cc(F)c(F)c(F)c3)nn2)[C@@H](O)[C@@H](CO)O[C@H]1C(=O)N(c1cc(Br)cc(C#N)c1)[C@@H]1CC[C@H]1O [Example 2.1.5R, (2R,3R,4S,5R,6R)-N-(3-bromo-5-cyanophenyl)-5-hydroxy-N-((1R,2R)-2-hydroxycyclobutyl)-6-(hydroxymethyl)-3-methoxy-4-(4-(3,4,5-trifluorophenyl)-1H-1,2,3-triazol-1-yl)tetrahydro-2H-pyran-2-carboxamide]
IC50: 191 nM

CO[C@@H]1[C@@H](n2cc(-c3cc(F)cc(Cl)c3)nn2)[C@@H](O)[C@@H](CO)O[C@H]1C(=O)N(c1cc(Br)cc(C#N)c1)[C@@H]1CC[C@H]1O [Example 2.9.5R, (2R,3R,4S,5R,6R)-N-(3-bromo-5-cyanophenyl)-4-(4-(3-chloro-5-fluorophenyl)-1H-1,2,3-triazol-1-yl)-5-hydroxy-N-((1R,2R)-2-hydroxycyclobutyl)-6-(hydroxymethyl)-3-methoxytetrahydro-2H-pyran-2-carboxamide]
IC50: 473 nM

CC(=O)O[C@@H]1[C@@H](n2cc(-c3cc(F)c(C)c(F)c3)nn2)[C@@H](O)[C@@H](CO)O[C@H]1C(=O)N(c1cc(Cl)cc(C#N)c1)[C@H]1CCC[C@@H]1O [Example 1A.4.4, (2R,3R,4S,5R,6R)-2-((3-chloro-5-cyanophenyl)((1S,2S)-2-hydroxycyclopentyl)carbamoyl)-4-(4-(3,5-difluoro-4-methylphenyl)-1H-1,2,3-triazol-1-yl)-5-hydroxy-6-(hydroxymethyl)tetrahydro-2H-pyran-3-yl acetate]
IC50: 26.8 nM

CO[C@@H]1[C@@H](n2cc(-c3cccc(F)c3)nn2)[C@@H](O)[C@@H](CO)O[C@H]1C(=O)N(c1cc(Cl)cc(C#N)c1)[C@@H]1CCC[C@H]1O [Example 1.15.4R, (2R,3R,4S,5R,6R)-N-(3-chloro-5-cyanophenyl)-4-(4-(3-fluorophenyl)-1H-1,2,3-triazol-1-yl)-5-hydroxy-N-((1R,2R)-2-hydroxycyclopentyl)-6-(hydroxymethyl)-3-methoxytetrahydro-2H-pyran-2-carboxamide]
IC50: 838 nM

CO[C@@H]1[C@@H](n2cc(-c3cc(F)c(F)c(F)c3)nn2)[C@@H](O)[C@@H](CO)O[C@H]1C(=O)N(c1cccc(Br)c1)[C@H]1CCC[C@@H]1O [Example 1.1.10, (2R,3R,4S,5R,6R)-N-(3-bromophenyl)-5-hydroxy-N-((1S,2S)-2-hydroxycyclopentyl)-6-(hydroxymethyl)-3-methoxy-4-(4-(3,4,5-trifluorophenyl)-1H-1,2,3-triazol-1-yl)tetrahydro-2H-pyran-2-carboxamide]
IC50: 78.8 nM

CO[C@@H]1[C@@H](n2cc(-c3cc(F)c(F)c(Cl)c3)nn2)[C@@H](O)[C@@H](CO)O[C@H]1C(=O)N(c1cc(Cl)cc(C#N)c1)[C@@H]1CCC[C@H]1O [Example 1.7.4R, (2R,3R,4S,5R,6R)-4-(4-(3-chloro-4,5-difluorophenyl)-1H-1,2,3-triazol-1-yl)-N-(3-chloro-5-cyanophenyl)-5-hydroxy-N-((1R,2R)-2-hydroxycyclopentyl)-6-(hydroxymethyl)-3-methoxytetrahydro-2H-pyran-2-carboxamide]
IC50: 103 nM

CC(=O)O[C@@H]1[C@@H](n2cc(-c3cc(F)c(F)c(F)c3)nn2)[C@@H](O)[C@@H](CO)O[C@H]1C(=O)N(c1cc(Cl)cc(Cl)c1)[C@H]1CC[C@@H]1O [Example 2A.1.2, (2R,3R,4S,5R,6R)-2-((3,5-dichlorophenyl)((1S,2S)-2-hydroxycyclobutyl)carbamoyl)-5-hydroxy-6-(hydroxymethyl)-4-(4-(3,4,5-trifluorophenyl)-1H-1,2,3-triazol-1-yl)tetrahydro-2H-pyran-3-yl acetate]
IC50: 29 nM

CO[C@@H]1[C@@H](n2cc(-c3cc(F)c(F)c(F)c3)nn2)[C@@H](O)[C@@H](CO)O[C@H]1C(=O)N(c1cccc(Br)c1)[C@H]1CC[C@@H]1O [Example 2.1.10, (2R,3R,4S,5R,6R)-N-(3-bromophenyl)-5-hydroxy-N-((1S,2S)-2-hydroxycyclobutyl)-6-(hydroxymethyl)-3-methoxy-4-(4-(3,4,5-trifluorophenyl)-1H-1,2,3-triazol-1-yl)tetrahydro-2H-pyran-2-carboxamide]
IC50: 108 nM

CO[C@@H]1[C@@H](n2cc(-c3cc(F)c(F)c(F)c3)nn2)[C@@H](O)[C@@H](CO)O[C@H]1C(=O)N(c1cccc(Br)c1)[C@@H]1CC[C@H]1O [Example 2.1.10R, (2R,3R,4S,5R,6R)-N-(3-bromophenyl)-5-hydroxy-N-((1R,2R)-2-hydroxycyclobutyl)-6-(hydroxymethyl)-3-methoxy-4-(4-(3,4,5-trifluorophenyl)-1H-1,2,3-triazol-1-yl)tetrahydro-2H-pyran-2-carboxamide]
IC50: 203 nM
